Like-named read-outs stand apart in the source and are kept apart here. Where a SMILES comes first, the peptide text is derived from it. Bridges are numbered along the chain shown (N, C = ends).
Experiments:
[1] = circular dichroism (CD) spectroscopy; format: physicochemical; details: 150 mM NaCl, 5 mM MgCl2, pH 7.5, 5 °C, n=2, free‐thiol (red) samples with 5 mol equivalents TCEP; for MRE222 (mean residue ellipticity at 222 nm): 25 mM Tris, mean ± SD, SD; for % Helicity (estimated): from MRE222 by equation 7, 25 mM Tris
Protocol: Circular dichroism (CD): All samples were prepared in Tris buffer (25 mM Tris, 150 mM NaCl, 5 mM MgCl2, pH 7.5) with the exception of free sulfhydryl peptides, to which Tris(2‐carboxyethyl)phosphine (TCEP; 5 mol eq. relative to the peptide) was added. CD spectra were recorded using an APP Chirascan CD spectropolarimeter and 1 mm pathlength quartz cuvettes. Sample concentrations were typically 30–120 μM, as determined by UV−V absorption based on a tryptophan extinction coefficient of 5600 M^−1 cm^−1 and, for mal‐constrained variants, a maleimide coefficient of 1700 M^−1 cm^−1.[16, 32] […] Spectra were recorded in duplicate at 5 °C, over wavelengths ranging from 290 to 180 nm, with data collected every 1 nm (1 nm s^−1). A background spectrum for CD buffer alone was also recorded and background ellipticity values were subtracted from raw sample ellipticity values (θ) when calculating mean residue ellipticities (MREs) using Equation 6: (6) MRE=(θλ-θ0)xMw/nxlxc
Where [θ]λ is the observed ellipticity at a given wavelength λ in mdeg, [θ]0 is the ellipticity observed for the buffer, Mw =molar weight of the peptide in g mol^−1, n=number of residues; c=sample concentration (mg mL^−1); l=pathlength of the cuvette in mm. Estimates of peptide % helicity were made using Equation 7, [33] (7) %helicity=(MRE222-MREcoil)x100/-425001-3/n
where MRE222 is the MRE value at 222 nm, MREcoil=640‐45T (with T in °C)=415 deg cm^2 dmol^−1 res^−1 at 5 °C, and n is the number of backbone amide bonds including the N‐terminal acetyl.

[2] = target: T1, N‐Myc/Aurora‐A interaction (Aurora‐A122‐403‐C290A/C393A) (Homo sapiens, UniProt O14965, C290A/C393A); experiment: competition fluorescence anisotropy (FA) assay against fluorescein labelled N‐Myc61‐89; format: binding; also: equilibrated 2 h at room temperature
T1 construct: Aurora‐A 122‐403‐C290A/C393A protein was produced as described previously; made in house
T1 sequence (O14965 122-403 C290A/C393A): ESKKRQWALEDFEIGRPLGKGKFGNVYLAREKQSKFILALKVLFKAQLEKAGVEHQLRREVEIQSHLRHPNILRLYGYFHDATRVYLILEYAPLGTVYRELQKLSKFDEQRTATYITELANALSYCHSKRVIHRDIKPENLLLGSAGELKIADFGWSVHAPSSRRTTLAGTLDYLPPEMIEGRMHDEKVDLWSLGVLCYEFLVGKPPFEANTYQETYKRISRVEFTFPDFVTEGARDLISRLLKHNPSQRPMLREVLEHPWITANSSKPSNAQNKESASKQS
Protocol: Fluorescence anisotropy (FA) assays: All assays were performed using 384‐well plates (Greiner Bio‐one, UK). […] All samples were prepared in 25 mM Tris, 150 mM NaCl, 5 mM MgCl2, pH 7.5, and tested in triplicate using an EnVisionTM 2103 MultiLabel plate reader (Perkin Elmer; Waltham, MA, USA). The parameters were set as follows: Excitation wavelength=480 nm (30 nm bandwidth) and emission wavelength=535 nm (30 nm bandwidth). Measured data were processed and analysed as previously described.[31] Specifically, the perpendicular intensity (P) and parallel intensity (S) were subtracted by the control values and used for calculations of intensity and anisotropy using the following Equations 1, 2, 3, 4, and 5: (1) I=2PG+S (2) r=S-PG (3) Lb=r-rmin/λrmax-r+r-rmin (4) [drawing 1] (5) y=rmax+rmin-rmax/1+(x/x0)^p
For competition FA assays, the average anisotropy and the average standard deviation of the values derived from equation (2) were calculated and fit to a sigmoidal logistic model (equation (5)) using Origin 2021. […] Results are reported as IC50±SD, with data points representing the mean of three replicates and error bars indicating the corresponding SD. Where applicable, ΔΔG was determined as follows: ΔΔG=−RT ln (ΔIC50).

MRE222 (mean residue ellipticity at 222 nm) [1] [deg cm^−1 dmol^−1 res^−1] | % Helicity (estimated) [1] [%] | IC50 [2] [µM] | IC50 ([2]; SD) [µM] | SMILES
-2823 ± 48 | 8 ± 1 | ≥ 500 |  | CSCC[C@@H]1NC(=O)[C@H](CCC(=O)O)NC(=O)[C@H]([C@@H](C)O)NC(=O)[C@@H](NC(=O)[C@H](Cc2c[nH]c3ccccc23)NC(=O)[C@H](CO)NC(=O)[C@@H]2CCCN2C(=O)[C@@H]2CCCN2C(=O)[C@H](CCC(=O)O)NC(=O)[C@H](CO)NC(=O)[C@H](CO)NC(=O)[C@H](Cc2c[nH]cn2)NC(=O)[C@H](CCC(=O)O)NC(=O)[C@H](C)NC(=O)[C@H](Cc2ccccc2)NC(=O)CNC(=O)[C@H](CCCNC(=N)N)NC(=O)[C@H](CO)NC(=O)[C@@H]2CCCN2C(=O)[C@H](CO)NC(=O)[C@H](CC(C)C)NC(C)=O)CSSC[C@@H](C(=O)N[C@@H](CC(C)C)C(=O)N[C@@H](CCC(=O)O)C(=O)N[C@@H](CC(N)=O)C(=O)N[C@@H](CCC(=O)O)C(=O)N[C@@H](CC(C)C)C(=O)N[C@@H](Cc2c[nH]c3ccccc23)C(=O)NCC(N)=O)NC1=O [N-Myc 61-89 V78C/L82C ox] (Ac-LSPSRGFAEHSSEPPSWCTEMCLENELWG-NH2; disulfide 18-22)
-1951 ± 84 | 6 ± 1 |  | 75 ± 8 | CSCC[C@@H]1NC(=O)[C@H](CCC(=O)O)NC(=O)[C@@H](NC(=O)[C@@H](NC(=O)[C@H](Cc2c[nH]c3ccccc23)NC(=O)[C@H](CO)NC(=O)[C@@H]2CCCN2C(=O)[C@@H]2CCCN2C(=O)[C@H](CCC(=O)O)NC(=O)[C@H](CO)NC(=O)[C@H](CO)NC(=O)[C@H](Cc2c[nH]cn2)NC(=O)[C@H](CCC(=O)O)NC(=O)[C@H](C)NC(=O)[C@H](Cc2ccccc2)NC(=O)CNC(=O)[C@H](CCCNC(=N)N)NC(=O)[C@H](CO)NC(=O)[C@@H]2CCCN2C(=O)[C@H](CO)NC(=O)[C@H](CC(C)C)NC(C)=O)C(C)C)CSSC[C@@H](C(=O)N[C@@H](CCC(=O)O)C(=O)N[C@@H](CC(N)=O)C(=O)N[C@@H](CCC(=O)O)C(=O)N[C@@H](CC(C)C)C(=O)N[C@@H](Cc2c[nH]c3ccccc23)C(=O)NCC(N)=O)NC(=O)[C@H](CC(C)C)NC1=O [N-Myc 61-89T79C/L83C ox] (Ac-LSPSRGFAEHSSEPPSWVCEMLCENELWG-NH2; disulfide 19-23)
-2562 ± 106 | 8 ± 1 |  | 111 ± 5 | CSCC[C@H](NC(=O)[C@H](CS)NC(=O)[C@@H](NC(=O)[C@@H](NC(=O)[C@H](Cc1c[nH]c2ccccc12)NC(=O)[C@H](CO)NC(=O)[C@@H]1CCCN1C(=O)[C@@H]1CCCN1C(=O)[C@H](CCC(=O)O)NC(=O)[C@H](CO)NC(=O)[C@H](CO)NC(=O)[C@H](Cc1c[nH]cn1)NC(=O)[C@H](CCC(=O)O)NC(=O)[C@H](C)NC(=O)[C@H](Cc1ccccc1)NC(=O)CNC(=O)[C@H](CCCNC(=N)N)NC(=O)[C@H](CO)NC(=O)[C@@H]1CCCN1C(=O)[C@H](CO)NC(=O)[C@H](CC(C)C)NC(C)=O)C(C)C)[C@@H](C)O)C(=O)N[C@@H](CC(C)C)C(=O)N[C@@H](CC(C)C)C(=O)N[C@@H](CS)C(=O)N[C@@H](CC(N)=O)C(=O)N[C@@H](CCC(=O)O)C(=O)N[C@@H](CC(C)C)C(=O)N[C@@H](Cc1c[nH]c2ccccc12)C(=O)NCC(N)=O [N-Myc 61-89E80C/E84C red] (Ac-LSPSRGFAEHSSEPPSWVTCMLLCNELWG-NH2)
-1746 ± 74 | 6 ± 1 |  | 181 ± 9 | CSCC[C@H](NC(=O)[C@H](CCC(=O)O)NC(=O)[C@@H](NC(=O)[C@@H](NC(=O)[C@H](Cc1c[nH]c2ccccc12)NC(=O)[C@H](CO)NC(=O)[C@@H]1CCCN1C(=O)[C@@H]1CCCN1C(=O)[C@H](CCC(=O)O)NC(=O)[C@H](CO)NC(=O)[C@H](CO)NC(=O)[C@H](Cc1c[nH]cn1)NC(=O)[C@H](CCC(=O)O)NC(=O)[C@H](C)NC(=O)[C@H](Cc1ccccc1)NC(=O)CNC(=O)[C@H](CCCNC(=N)N)NC(=O)[C@H](CO)NC(=O)[C@@H]1CCCN1C(=O)[C@H](CO)NC(=O)[C@H](CC(C)C)NC(C)=O)C(C)C)[C@@H](C)O)C(=O)N[C@@H](CC(C)C)C(=O)N[C@@H](CS)C(=O)N[C@@H](CCC(=O)O)C(=O)N[C@@H](CC(N)=O)C(=O)N[C@@H](CCC(=O)O)C(=O)N[C@@H](CS)C(=O)N[C@@H](Cc1c[nH]c2ccccc12)C(=O)NCC(N)=O [N-Myc 61-89L83C/L87C red] (Ac-LSPSRGFAEHSSEPPSWVTEMLCENECWG-NH2)
-2630 ± 119 | 8 ± 1 |  | 219 ± 23 | CSCC[C@H](NC(=O)[C@H](CCC(=O)O)NC(=O)[C@@H](NC(=O)[C@@H](NC(=O)[C@H](Cc1c[nH]c2ccccc12)NC(=O)[C@H](CO)NC(=O)[C@@H]1CCCN1C(=O)[C@@H]1CCCN1C(=O)[C@H](CCC(=O)O)NC(=O)[C@H](CO)NC(=O)[C@H](CO)NC(=O)[C@H](Cc1c[nH]cn1)NC(=O)[C@H](CCC(=O)O)NC(=O)[C@H](C)NC(=O)[C@H](Cc1ccccc1)NC(=O)CNC(=O)[C@H](CCCNC(=N)N)NC(=O)[C@H](CO)NC(=O)[C@@H]1CCCN1C(=O)[C@H](CO)NC(=O)[C@H](CC(C)C)NC(C)=O)C(C)C)[C@@H](C)O)C(=O)N[C@H]1CSSC[C@@H](C(=O)N[C@@H](CC(C)C)C(=O)N[C@@H](Cc2c[nH]c3ccccc23)C(=O)NCC(N)=O)NC(=O)[C@H](CC(N)=O)NC(=O)[C@H](CCC(=O)O)NC(=O)[C@H](CC(C)C)NC1=O [N-Myc 61-89 L82C/E86C ox] (Ac-LSPSRGFAEHSSEPPSWVTEMCLENCLWG-NH2; disulfide 22-26)
-2348 ± 49 | 7 ± 1 |  | 120 ± 14 | CSCC[C@H](NC(=O)[C@H](CCC(=O)O)NC(=O)[C@@H](NC(=O)[C@@H](NC(=O)[C@H](Cc1c[nH]c2ccccc12)NC(=O)[C@H](CO)NC(=O)[C@@H]1CCCN1C(=O)[C@@H]1CCCN1C(=O)[C@H](CCC(=O)O)NC(=O)[C@H](CO)NC(=O)[C@H](CO)NC(=O)[C@H](Cc1c[nH]cn1)NC(=O)[C@H](CCC(=O)O)NC(=O)[C@H](C)NC(=O)[C@H](Cc1ccccc1)NC(=O)CNC(=O)[C@H](CCCNC(=N)N)NC(=O)[C@H](CO)NC(=O)[C@@H]1CCCN1C(=O)[C@H](CO)NC(=O)[C@H](CC(C)C)NC(C)=O)C(C)C)[C@@H](C)O)C(=O)N[C@@H](CS)C(=O)N[C@@H](CC(C)C)C(=O)N[C@@H](CCC(=O)O)C(=O)N[C@@H](CC(N)=O)C(=O)N[C@@H](CS)C(=O)N[C@@H](CC(C)C)C(=O)N[C@@H](Cc1c[nH]c2ccccc12)C(=O)NCC(N)=O [N-Myc 61-89L82C/E86C red] (Ac-LSPSRGFAEHSSEPPSWVTEMCLENCLWG-NH2)

From PMC10962542, “Inhibition of Aurora‐A/N‐Myc Protein–Protein Interaction Using Peptidomimetics: Understanding the Role of Peptide Cyclization” (Chembiochem, 2023)
